Structures can show the parent of a compound that is named as a salt.
Tests used:
[1] = molecular target: T1, PIM1 serine/threonine kinase (Homo sapiens, UniProt P11309); assay: PIM1 serine/threonine kinase inhibitory effect; assay type: biochemical; details: PIM1 serine/threonine kinase activity; ATP 40 μM; 30° C., 30 minutes
T1 construct: purchased Carna Bioscience, Inc
Summary of the method: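 Recombinant PIM1 (0.15 μg/ml final) with 0.5 μM biotinylated substrate and 40 μM ATP in pH 7.0 HEPES/MgCl2 buffer, 30 min at 30° C. Compound range was 0.01–10000 nM final, n=2. HTRF detection with streptavidin-XL665 and anti-phospho antibody-cryptate, 1 h; IC50 from non-linear regression of the 665/620 ratio.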

[2] = molecular target: T2, PIM3 serine/threonine kinase (Homo sapiens, UniProt Q86V86); assay: PIM3 serine/threonine kinase inhibitory effect; assay type: biochemical; details: PIM3 serine/threonine kinase activity; ATP 10 μM; 30° C., 30 minutes
T2 construct: purchased Carna Bioscience, Inc
Method: (§1) Each test substance was prepared to 10 mM with dimethylsulfoxide (DMSO), and further diluted with DMSO so as to have concentrations of 1000, 300, 100, 30, 10, 3, 1, 0.3, 0.1, 0.03, 0.01, and 0.001 μM. Moreover, each dilution was further diluted 33.3-fold with an assay buffer to prepare a test substance solution. The composition of the assay buffer was 50 mM HEPES (pH 7.0), 0.02% NaN3, 0.01% Bovine Serum Albumin, 0.1 mM Orthovanadate, 1 mM Dithiothreitol, and 5 mM MgCl2.
(§2) 5 μL of each test substance solution was added to 384-well plates (n=2), and then 2.5 μL of a substrate solution (substrate 3-biotin (Cisbio Bioassays SAS), final concentration in the reaction solution: 0.5 μM) and 2.5 μL of an ATP solution (in the cases of PIM1, 2, 3, the final concentrations in the reaction solutions were 40, 2, and 10 μM, respectively) were added, 5 μL of each of PIM1, 2, 3 serine/threonine kinase solutions (Carna Bioscience, Inc., the final concentrations in the reaction solutions were 0.15, 1.6, and 0.25 μg/ml, respectively) was finally added, and the mixture was reacted at 30° C. for 30 minutes. The test substance concentrations in the reaction solutions are 10000, 3000, 1000, 300, 100, 30, 10, 3, 1, 0.3, 0.1, and 0.01 nM.
(§3) Thereafter, 15 μL of each detection solution (62.5 nM Streptavidin-XL665 (Cisbio Bioassays SAS), […] STK antibody-Cryptate (Cisbio Bioassays SAS), 50 mM HEPES (pH 7.0), 0.8 M KF, 0.1% Bovine Serum Albumin, 20 mM ethylenediaminetetraacetic acid) was added to each well. After stirring, the mixture was reacted at 30° C. for 1 hour. Absorbance (OD620, OD665) at 620 and 665 nm was measured with a microplate reader (SpectraMax M5e, Molecular Devices, LLC).
(§4) Non-linear regression analysis was performed by an SAS system (SAS Institute Inc.) using the ratio (OD665/OD620) of the measured absorbance to calculate a test substance concentration (IC50) that inhibits PIM1 serine/threonine kinase activity by 50%.
(§5) For the compounds with the following Example numbers, in addition to the above PIM1 serine/threonine kinase activity (IC50), test substance concentrations (IC50) that inhibit PIM2 serine/threonine kinase activity and PIM3 serine/threonine kinase activity by 50% were calculated.

[3] = molecular target: T3, PIM2 serine/threonine kinase (Homo sapiens, UniProt Q9P1W9); assay: PIM2 serine/threonine kinase inhibitory effect; assay type: biochemical; details: PIM2 serine/threonine kinase activity; ATP 2 μM; 30° C., 30 minutes
T3 construct: purchased Carna Bioscience, Inc
Method: as §1, §2, §3, §4, §5

[4] = molecular target: PIM1 transgenic cells (Ba/F3) (Homo sapiens, UniProt P11309); assay: Proliferation inhibitory effect on PIM1 transgenic cells; assay type: cell-based, mouse; details: proliferation inhibition, 72 hours, Cell Counting Kit-8, read-out: PIM1 IC50
Summary of the method: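 Mouse Ba/F3 pro-B cells were retrovirally transduced with human PIM1 so that their proliferation depends on PIM1. Cells were treated with compound at 1–10000 nM final for 72 h, then read by CCK-8 (OD450−OD650). Inhibition was set against DMSO (0%) and no-cell blank (100%), and IC50 was obtained by two-parameter logistic regression.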

T3 sequence (Q9P1W9 whole entry): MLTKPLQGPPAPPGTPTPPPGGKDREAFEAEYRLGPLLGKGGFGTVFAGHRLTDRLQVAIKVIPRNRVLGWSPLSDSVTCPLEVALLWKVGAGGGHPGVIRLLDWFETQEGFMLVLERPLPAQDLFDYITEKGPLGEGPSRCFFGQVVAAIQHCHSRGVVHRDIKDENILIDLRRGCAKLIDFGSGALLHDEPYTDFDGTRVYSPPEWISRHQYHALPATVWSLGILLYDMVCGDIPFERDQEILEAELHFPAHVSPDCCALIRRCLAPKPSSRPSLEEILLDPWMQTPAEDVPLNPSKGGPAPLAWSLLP
PIM1 transgenic cells (Ba/F3), sequence (P11309 whole entry, stated change not applied): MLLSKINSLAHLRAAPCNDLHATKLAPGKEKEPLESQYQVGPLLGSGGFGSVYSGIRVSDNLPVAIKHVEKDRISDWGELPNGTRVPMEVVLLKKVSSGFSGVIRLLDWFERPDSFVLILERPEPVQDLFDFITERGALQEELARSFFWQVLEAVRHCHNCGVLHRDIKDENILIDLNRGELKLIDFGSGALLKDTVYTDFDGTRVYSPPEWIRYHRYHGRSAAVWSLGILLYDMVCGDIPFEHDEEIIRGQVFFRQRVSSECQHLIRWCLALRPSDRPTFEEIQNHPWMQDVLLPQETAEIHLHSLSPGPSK
T1 sequence (P11309 whole entry): as the sequence (P11309 whole entry, stated change not applied) above

Row | SMILES | IC50 [1] [nM] | IC50 [2] [nM] | IC50 [3] [nM] | GI50 [4] [nM]
1 | N[C@H]1CC[C@H](CNc2cc(-c3n[nH]c(=O)o3)ccc2C(F)(F)F)CC1 [Example 55, 5-[3-({[(1r,4r)-4-aminocyclohexyl]methyl}amino)-4-(trifluoromethyl)phenyl]-1,3,4-oxadiazol-2(3H)-one hydrochloride] | 0.7 | 5 | 14 | 34
2 | N[C@H]1CC[C@H](Nc2cc(-c3n[nH]c(=O)o3)ccc2C(F)(F)F)CC1 [Example 34, 5-[3-{[(1r,4r)-4-aminocyclohexyl]amino}-4-(trifluoromethyl)phenyl]-1,3,4-oxadiazol-2(3H)-one hydrochloride] | 4 | 16 | 25 | 910
3 | O=c1[nH]nc(-c2ccc(C(F)(F)F)c(-c3cncc(N4CCNCC4)c3)c2)o1 [Example 25, 5-{3-[5-(piperazin-1-yl)pyridin-3-yl]-4-(trifluoromethyl)phenyl}-1,3,4-oxadiazol-2(3H)-one dihydrochloride] | 180 | 740 | 770 | 
4 | NC[C@H]1CC[C@H](Nc2cc(-c3n[nH]c(=O)o3)ccc2C(F)(F)F)CC1 [Example 37, 5-[3-{[(1r,4r)-4-(aminomethyl)cyclohexyl]amino}-4-(trifluoromethyl)phenyl]-1,3,4-oxadiazol-2(3H)-one hydrochloride] | 2 | 10 | 11 | 280
5 | N[C@H]1CC[C@H](CNc2cc(-c3n[nH]c(=O)o3)ccc2Cl)CC1 [Example 61, 5-[3-({[(1r,4r)-4-aminocyclohexyl]methyl}amino)-4-chlorophenyl]-1,3,4-oxadiazol-2(3H)-one hydrochloride] | 1 | 5 | 19 | 44
6 | C[C@@H](Nc1cc(-c2n[nH]c(=O)o2)ccc1C(F)(F)F)C1CCNCC1 [Example 59, 5-[3-{[(1R)-1-(piperidin-4-yl)ethyl]amino}-4-(trifluoromethyl)phenyl]-1,3,4-oxadiazol-2(3H)-one hydrochloride] | 16 | 85 | 98 | 320
7 | NCc1cccc(-c2cc(-c3n[nH]c(=O)o3)ccc2Cl)c1 [Example 18, 5-[3′-(aminomethyl)-6-chloro[1,1′-biphenyl]-3-yl]-1,3,4-oxadiazol-2(3H)-one hydrochloride] | 64 | 340 | 220 | 
8 | CC(Nc1cc(-c2n[nH]c(=O)o2)ccc1C(F)(F)F)C1CCNCC1 (stereo not shown) [Example 52, 5-[3-{[1-(piperidin-4-yl)ethyl]amino}-4-(trifluoromethyl)phenyl]-1,3,4-oxadiazol-2(3H)-one hydrochloride] | 4.2 | 12 | 19 | 59

More lines, now with the values ahead:

Row | IC50 [1] [nM] | IC50 [2] [nM] | IC50 [3] [nM] | GI50 [4] [nM] | SMILES
9 | 1.1 | 4 | 7 | 37 | N[C@H]1CC[C@H](CNc2cc(-c3n[nH]c(=O)o3)cc(F)c2C(F)(F)F)CC1 [Example 69, 5-[3-({[(1r,4r)-4-aminocyclohexyl]methyl}amino)-5-fluoro-4-(trifluoromethyl)phenyl]-1,3,4-oxadiazol-2(3H)-one hydrochloride]
10 | 0.7 | 5 | 13 | 28 | CC(Nc1cc(-c2n[nH]c(=O)o2)ccc1C(F)(F)F)[C@H]1CC[C@H](N)CC1 (stereo partly shown) [Example 63, 5-[3-({1-[(1r,4r)-4-aminocyclohexyl]ethyl}amino)-4-(trifluoromethyl)phenyl]-1,3,4-oxadiazol-2(3H)-one hydrochloride]
11 | 4.7 | 18 | 90 | 190 | N[C@H]1CC[C@H](CNc2cc(-c3n[nH]c(=O)o3)ccc2OC(F)(F)F)CC1 [Example 66, 5-[3-({[(1r,4r)-4-aminocyclohexyl]methyl}amino)-4-(trifluoromethoxy)phenyl]-1,3,4-oxadiazol-2(3H)-one hydrochloride]
12 | 1.4 | 5 | 18 | 61 | N[C@H]1CC[C@H](CNc2cc(-c3n[nH]c(=O)o3)ccc2Br)CC1 [Example 68, 5-[3-({[(1r,4r)-4-aminocyclohexyl]methyl}amino)-4-bromophenyl]-1,3,4-oxadiazol-2(3H)-one hydrochloride]

— US20220024921A1, “1,3,4-OXADIAZOLONE COMPOUND AND PHARMACEUTICAL” (NIPPON SHINYAKU CO., LTD., priority 2018, published 2022)
